pIC50: −log10 of the molar value. Where “and” joins values, the source holds several entries; their conditions need not be identical. Identical values can stand only once.
How the values were obtained:
HDAC1 = molecular target: T1, HDAC1 (Homo sapiens, UniProt Q13547); assay: Fluorimetric HDAC inhibition assay, HDAC1; assay type: biochemical; details: reduced with DTT
T1 construct: purchased BPS Bioscience 50051
Experimental: (§1) The inhibition of HDAC1, 2, 3, and 6 by JRM-28 was fluorometrically measured using the HDAC Fluorogenic Assay Kit (Catalog# 50034) by BPS bioscience. Purified recombinant human HDAC1 (Cat# 50051), HDAC3 (Cat# 50003), and HDAC6 (Cat# 50056) were also obtained from BPS Bioscience. The enzyme inhibition assay was performed according to the manufacturer’s protocol. […] Purified recombinant HDAC2 (supplied with the fluorogenic kit) was diluted to 6 ng/µL (5 µL/well with the supplied HDAC assay buffer). HDAC 1, 3, and 6 were also diluted to the optimized concentration (5 µL/well) with the HDAC assay buffer. The activity of JRM-28 was measured along with DTT control and DMSO as blank. After adding 5 µL of the diluted HDAC enzymes in designated wells, the 96-well plate (supplied with the kit) was incubated at 37 °C. Then, the reaction was initiated by adding 5 µL of diluted HDAC substrate to each well, followed by another incubation at 37 °C for 30 min. Next, 50 µL of the developer reagent was added to each well and incubated at room temperature for another 15 min. Finally, fluorescence was measured by a microplate absorbance spectrophotometer (PerkinElmer Enspire 2300 Multilabel Multimode Microplate Reader) with an excitation at λ = 485 nm and detection at λ = 528 nm.

SHSY5Y cells = assay: Lactate dehydrogenase (LDH) release cytotoxicity assay; assay type: cell-based, human; details: 24 h
Experimental: Lactate dehydrogenase (LDH) cell cytotoxicity assay was performed per the manufacturer’s protocol. Briefly, SHSY5Y cells were grown in a 96-well plate with up to 70% confluency followed by treatment with increasing doses of JRM-28 under serum-free conditions. Serially diluted JRM-28 was used in a concentration range from 75 nM to 50 μM. As a control, serially diluted DMSO controls were added. After 24 h, supernatants were harvested by a multi-channel pipette and then assessed for LDH release with CyQUANT™ LDH Cytotoxicity Assay Kit. Briefly, 50 μL of supernatant was incubated with an equal volume of the working reaction mixture (generated after combining the 600 µL of assay buffer Stock Solution with the 11.4 mL of Substrate Stock substrate mix), incubated at room temperature for 30 min protected from light, terminated by 50 μL of stop solution, and then measured at 490 nm using a microplate absorbance spectrophotometer (Perkin Elmer Enspire 2300 Multilabel Multimode Microplate Reader). The percentage of cytotoxicity was determined following the formula provided with the LDH assay kit and then converted to relative cell cytotoxicity.

HDAC2 [1] = assay: HDAC2 immunoblot and immunofluorescence in SHSY5Y cells; assay type: cell-based, human
Experimental: (§2) Immunofluorescence analysis was performed as described earlier. Briefly, cells cultured on coverslip contained in six-well plates (Lab-Tek II) were fixed with 4% paraformaldehyde for 20 min followed by two rinses in TBST. Samples were incubated in a 1:1 solution of TBST and blocking buffer containing rabbit anti-NR2A (1:250), anti-GluR1 (1:250), ant-HDAC2 (1:250), anti-CREB (1:250), and anti-MAP2 (1:250) for 2 h at 37 °C. After three washes in PBST (15 min each), slides were further incubated with FIT-C and TRIT-C-conjugated secondary antibodies. For negative controls, a set of culture slides was incubated under similar conditions with secondary antibodies and without the primary antibodies (Table 3). The samples were mounted and observed under an Accuscope fluorescent microscope. The images were captured and merged in CaptaVision^TM imaging software.
Immunoblot analysis was carried out as described earlier. Briefly, SHSY5Y neuronal cell homogenates were electrophoresed by 4–12% Tris-Glycine gradient gel, proteins were transferred onto a 0.45 μm nitrocellulose membrane, and the protein band was visualized with Odyssey Sa infrared scanner after immunolabeling with primary antibodies followed by infrared fluorophore-tagged secondary antibody (Licor Biosciences, Lincoln, NE, USA).

NR2A and GluR1 = NR2A and GluR1 immunofluorescence in E18 mouse hippocampal neurons; assay type: cell-based; details: 5 µM
Experimental: as §2

[2] = system: mouse primary hippocampal neurons; assay: NMDA/AMPA-sensitive calcium influx assay in mouse primary hippocampal neurons; assay type: cell-based
Experimental: Mouse primary hippocampal neurons and AD neurons were loaded with Fluo4-fluorescence conjugated calcium dye (Invitrogen Molecular Probes, Cat #F10471) and incubated at 37 °C for 60 min, as described before. Briefly, fluorescence excitation and emission spectra were recorded in a Perkin–Elmer Victor X2 Fluorimetric Spectrometer (Versiti Blood Center, Wauwatosa, WI, USA) in the presence of 50 μM NMDA and AMPA solutions. The recording was performed with 100 repeats at 0.1 ms intervals. The oscillogram was generated with the help of Parkin Elmer 2030 software that was connected to the Victor X2 calcium recorder unit. The real-time calcium noise graph was generated as a kinetic chart plotted on a linear scale.

HDAC2 [3] = molecular target: T2, HDAC2 (Homo sapiens, UniProt Q92769); assay: HDAC2 inhibition assay, luminometric method (HDAC-Glo I/II); assay type: biochemical; design: purchased BPS Bioscience 50002; details: for pIC50: HDAC2 0.5 nM, read-out: IC50 HDAC2 inhibition (luminescence)
Experimental: HDAC2 inhibition assay was performed by either the luminometric or fluorimetric method applying the following procedures. The table (Table 1) represents the details of different HDAC proteins and antibodies used in all biochemical assays.
HDAC2 inhibition assay was performed by HDAC-Glo™ I/II Assays and Screening System (Catalog# G6420, Promega Corporation, Madison, WI, USA) by the luminometric method according to the manufacturer’s protocol. […] The HDAC-2 inhibition assay was performed as previously described to determine IC values. In brief, the purified HDAC2 was diluted in HDAC assay buffer (provided with the HDAC-Glo™ I/II Assays and Screening System) to the same concentration based on their calculated molar mass. […] Next, 10 µL of JRM-28 after serial dilution was added to 10 µL of diluted HDAC2 in such a way that the final HDAC2 concentration was 0.5 nM in each well of a 384-well microplate (Greiner, Kremsmünster, Austria). After 30 min of incubation, 20 µL of the HDAC-Glo substrate/developing reagent was added to each well according to the manufacturer’s instructions. The 384-well plate was then agitated on an orbital shaker for the mixing of components in each well for another 30 min at room temperature. Finally, luminescence was measured using a POLARstar Omega plate reader (BMG Labtech, Ortenberg, Germany).

HDAC2 [4] = molecular target: T2, HDAC2; assay: Fluorimetric HDAC inhibition assay, HDAC2; assay type: biochemical; design: purchased BPS Bioscience 50034 (HDAC Fluorogenic Assay Kit; enzyme supplied with kit); details: reduced with DTT
Experimental: as §1

T2 sequence (Q92769 whole entry): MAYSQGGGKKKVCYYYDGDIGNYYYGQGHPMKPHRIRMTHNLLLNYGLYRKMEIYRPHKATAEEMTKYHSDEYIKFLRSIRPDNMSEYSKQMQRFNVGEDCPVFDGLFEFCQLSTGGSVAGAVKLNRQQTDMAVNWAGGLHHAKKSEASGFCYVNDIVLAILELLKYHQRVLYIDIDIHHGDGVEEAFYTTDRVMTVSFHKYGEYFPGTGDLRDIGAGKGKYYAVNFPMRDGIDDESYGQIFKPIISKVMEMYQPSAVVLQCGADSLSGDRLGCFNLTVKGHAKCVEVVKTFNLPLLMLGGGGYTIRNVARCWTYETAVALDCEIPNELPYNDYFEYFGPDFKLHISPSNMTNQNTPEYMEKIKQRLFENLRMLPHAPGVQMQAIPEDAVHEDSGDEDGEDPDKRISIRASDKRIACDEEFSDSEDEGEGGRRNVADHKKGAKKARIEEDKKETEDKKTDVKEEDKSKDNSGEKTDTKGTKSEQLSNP
T1 sequence (Q13547 whole entry): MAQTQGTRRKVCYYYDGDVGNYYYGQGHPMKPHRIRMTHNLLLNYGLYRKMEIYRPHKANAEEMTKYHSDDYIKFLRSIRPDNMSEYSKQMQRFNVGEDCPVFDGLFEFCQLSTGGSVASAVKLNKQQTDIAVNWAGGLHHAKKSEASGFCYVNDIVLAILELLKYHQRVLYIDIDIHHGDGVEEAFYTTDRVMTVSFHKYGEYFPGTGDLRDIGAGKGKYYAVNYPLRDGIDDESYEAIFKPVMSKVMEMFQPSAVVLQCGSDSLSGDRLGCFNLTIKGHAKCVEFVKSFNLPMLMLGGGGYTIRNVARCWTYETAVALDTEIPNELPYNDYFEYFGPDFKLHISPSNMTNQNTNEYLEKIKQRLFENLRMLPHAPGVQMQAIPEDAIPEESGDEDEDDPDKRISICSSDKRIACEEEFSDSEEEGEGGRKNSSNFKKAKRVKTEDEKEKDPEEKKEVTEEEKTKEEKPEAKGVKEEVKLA

pIC50 (HDAC1): 6.45 | Hill coefficient HDAC1 (fluorimetric) (HDAC1; listed as JRM-28 (JRM-28a+28b)): −4.582 | pIC50 (HDAC2 [3]; in the presence of DTT (reduced)): 6.55 | increase of HDAC2 inhibitory effect by addition of DTT (HDAC2 [3]; with DTT versus without DTT): ~200 fold | pIC50 (HDAC2 [3]; without DTT (non-reduced dimer)): 4.26 | pIC50 (HDAC2 [4]): ~6.97 and 6.97 | Hill slope HDAC2 (fluorimetric) (HDAC2 [4]; listed as JRM-28 (JRM-28a+28b)): −1.580
Structure (SMILES): CN(C(=O)CC(O)/C=C/CCSS(=O)(=O)CC/C=C/C(O)CC(=O)N(C)c1ccccc1)c1ccccc1 (stereo not drawn) [JRM-28, S-((E)-5-hydroxy-7-(methyl(phenyl)amino)-7-oxohept-3-en-1-yl) (E)-5-hydroxy-7-(methyl(phenyl)amino)-7-oxohept-3-ene-1-sulfonothioate]
LDH release (SHSY5Y cells; 30 µM and 50 µM): significantly induced LDH release | LDH release (SHSY5Y cells; concentrations lower than 30 µM): but not lower concentrations of JRM-28, significantly induced LDH release | nuclear translocation of HDAC2 (immunocytochemistry) (HDAC2 [1]; 5 µM): significantly arrested the nuclear translocation of HDAC2 | HDAC2 expression in nuclei (dual IF with CREB) (HDAC2 [1]; 5 µM, SHSY5Y cells): significantly attenuated the expression of HDAC2 in the nuclei | HDAC2 expression (immunoblot) (HDAC2 [1]; 2, 5, and 10 µM, 24 h, versus control): did not upregulate the expression of HDAC2 | expressions of NR2A and GluR1 (IF, MFI) (NR2A and GluR1): upregulated | AMPA-sensitive calcium influx ([2]; 5 µM, 24 h): strongly upregulated | NMDA-sensitive calcium influx ([2]; 5 µM, 24 h): strongly upregulated | optimum dose for the calcium influx ([2]; 2, 5, and 10 µM tested): 5 µM | NMDA- and AMPA-driven calcium influx after creb siRNA ([2]; creb knocked down by creb siRNA): significantly abrogate

Reference: PMC11640089, “JRM-28, a Novel HDAC2 Inhibitor, Upregulates Plasticity-Associated Proteins in Hippocampal Neurons and Enhances Morphological Plasticity via Activation of CREB: Implications for Alzheimer’s Disease” (Cells, 2024)
